Data as given in publication PMC10537738, “Antiviral Effect of 5′-Arylchalcogeno-3-aminothymidine Derivatives in SARS-CoV-2 Infection” (Molecules, 2023).
Like-named read-outs stand apart in the source and are kept apart here.

Experiments:
SARS-CoV-2 [1] = test: microbe, parasite or virus in culture; assay type: cell-based
[2] = Cytotoxicity assay, methylene blue staining, Calu-3; conditions: human
in vitro [3] = conditions: African green monkey
in vitro [4] = conditions: human
SARS-CoV-2 [5] = test: SARS-CoV-2 replication inhibition in Vero E6 cells (PFU titration); conditions: for EC50: read-out: EC50 24 h, Vero E6, MOI 0.01, 24 hpi; for inhibition of SARS-CoV-2 replication: Vero E6, 24 hpi, 10 µM
SARS-CoV-2 [6] = test system: SARS-CoV-2; set-up: method as in PMID 32759267; conditions: infected Vero E6 cells; cited from earlier work
SARS-CoV-2 [7] = test system: SARS-CoV-2; set-up: method as in PMID 33880524; conditions: Calu-3-based assays, 48 hpi; cited from earlier work
SARS-CoV-2 [8] = conditions: cell model not given; read-out: estimated EC50; cited from earlier work
[9] = Severe acute respiratory syndrome coronavirus 2, 24 h, Calu-3, MOI 0.01, 24 hpi, read-out: EC50 24 h
[10] = Severe acute respiratory syndrome coronavirus 2, 48 h, Calu-3, MOI 0.01, 48 hpi, read-out: EC50 48 h
[11] = Severe acute respiratory syndrome coronavirus 2, Calu-3, 24 h, read-out: EC50 24 h, Calu-3, MOI 0.01, 24 hpi
[12] = Severe acute respiratory syndrome coronavirus 2, Calu-3, 48 h, read-out: EC50 48 h, Calu-3, MOI 0.01, 48 hpi
[13] = read-out: EC50 48 h, Calu-3, MOI 0.01, 48 hpi
[14] = Severe acute respiratory syndrome coronavirus 2, Calu-3, read-out: inhibition of coronavirus replication
[15] = read-out: EC50 24 h, Calu-3, MOI 0.01, 24 hpi

Compound	EC50 (SARS-CoV-2 [1]; [11]) [µM]	EC50 (SARS-CoV-2 [1]; [12]) [µM]	CC50 (in vitro [3]) [µM]	CC50 (in vitro [4]) [µM]	EC50 (SARS-CoV-2 [5]) [µM]	other results
Cc1cn([C@H]2C[C@H](N=[N+]=[N-])[C@@H](CO)O2)c(=O)[nH]c1=O [AZT, azidothymidine, reference compound]	–	–	–	–	–	EC50 (SARS-CoV-2 [1]; [9]): > 10 µM; EC50 (SARS-CoV-2 [1]; [10]): > 10 µM; CC50 at 72 h [2]: > 200 µM
Cc1cn([C@H]2C[C@H](N)[C@@H](C[Se]c3ccccc3)O2)c(=O)[nH]c1=O [R3a]	6.37 ± 0.58	3.67 ± 1.57	> 200	> 200	2.25 ± 0.43	–
Cc1ccc([Se]C[C@H]2O[C@@H](n3cc(C)c(=O)[nH]c3=O)C[C@@H]2N)cc1 [R3b]	3.82 ± 1.42	1.33 ± 0.35	> 200	> 200	2.97 ± 0.62	inhibition at 10 µM (SARS-CoV-2 [1]; Severe acute respiratory syndrome coronavirus 2, Calu-3, read-out: inhibition of viral replication): 95%
COc1ccc([Se]C[C@H]2O[C@@H](n3cc(C)c(=O)[nH]c3=O)C[C@@H]2N)cc1 [R3c]	5.17 ± 0.81	3.43 ± 1.52	> 200	> 200	3.31 ± 0.92	–
Cc1cn([C@H]2C[C@H](N)[C@@H](C[Se]c3ccc(Cl)cc3)O2)c(=O)[nH]c1=O [R3d]	8.29 ± 0.82	≤ 2.57	98.8 ± 11.7	> 200	1.23 ± 0.54	EC50 (SARS-CoV-2 [1]; [13]): 2.17 ± 0.64 µM
Cc1cn([C@H]2C[C@H](N)[C@@H](C[Se]c3cccc4ccccc34)O2)c(=O)[nH]c1=O [R3e]	≤ 2	≤ 2.57	> 200	156 ± 5	1.99 ± 0.42	inhibition at 10 µM (SARS-CoV-2 [1]; [14]): > 95%; EC50 (SARS-CoV-2 [1]; [15]): 1.92 ± 0.43 µM; EC50 (SARS-CoV-2 [1]; [13]): 2.31 ± 0.54 µM; inhibition of SARS-CoV-2 replication (SARS-CoV-2 [5]): approximately 95%
Cc1cn([C@H]2C[C@H](N)[C@@H](C[Te]c3ccccc3)O2)c(=O)[nH]c1=O [R3f]	≤ 2	4.86 ± 1.31	52.1 ± 12.7	44.6 ± 8.3	2.67 ± 0.63	inhibition at 10 µM (SARS-CoV-2 [1]; [14]): > 95%; inhibition of SARS-CoV-2 replication (SARS-CoV-2 [5]): approximately 95%
Cc1ccc([Te]C[C@H]2O[C@@H](n3cc(C)c(=O)[nH]c3=O)C[C@@H]2N)cc1 [R3n]	≤ 2	≤ 2.57	60.1 ± 4.4	68.7 ± 11.4	6.1 ± 0.41	inhibition at 10 µM (SARS-CoV-2 [1]; [14]): > 95%; EC50 (SARS-CoV-2 [1]; [15]): 1.18 ± 0.61 µM; EC50 (SARS-CoV-2 [1]; [13]): 2.57 ± 0.62 µM
COc1ccc([Te]C[C@H]2O[C@@H](n3cc(C)c(=O)[nH]c3=O)C[C@@H]2N)cc1 [R3o]	6.18 ± 2.05	≤ 2.57	39.9 ± 4.4	30.7 ± 5.6	4.95 ± 0.64	EC50 (SARS-CoV-2 [1]; [13]): 1.99 ± 1.73 µM
Cc1cn([C@H]2C[C@H](N)[C@@H](C[Te]c3ccc(Cl)cc3)O2)c(=O)[nH]c1=O [R3p]	4.33 ± 1.03	12.7 ± 1.74	49.7 ± 7.5	35.2 ± 7.5	4.89 ± 0.52	inhibition of SARS-CoV-2 replication (SARS-CoV-2 [5]): approximately 95%
Cc1cn([C@H]2C[C@H](N)[C@@H](C[Te]c3cccc4ccccc34)O2)c(=O)[nH]c1=O [R3q]	≤ 2	–	33.6 ± 6.9	34.3 ± 10.2	4.21 ± 0.43	inhibition at 10 µM (SARS-CoV-2 [1]; [14]): > 95%; EC50 (SARS-CoV-2 [1]; [15]): 2.03 ± 0.32 µM; melting point: 134.1 to 135.6 °C
Cc1cn([C@H]2C[C@H](N)[C@@H](CSc3ccccc3)O2)c(=O)[nH]c1=O [R3r]	–	–	–	–	–	EC50 (SARS-CoV-2 [1]; [9]): > 10 µM; EC50 (SARS-CoV-2 [1]; [10]): > 10 µM; CC50 at 72 h (in vitro [4]): > 200 µM
COC(=O)N[C@H](C(=O)N[C@@H](Cc1ccccc1)[C@@H](O)CN(Cc1ccc(-c2ccccn2)cc1)NC(=O)[C@@H](NC(=O)OC)C(C)(C)C)C(C)(C)C [atazanavir]	–	–	–	–	–	EC50 (SARS-CoV-2 [6]): 2 ± 0.12 µM
COC(=O)N[C@H](C(=O)N1CCC[C@H]1c1nc(-c2ccc(-c3ccc(-c4c[nH]c([C@@H]5CCCN5C(=O)[C@@H](NC(=O)OC)C(C)C)n4)cc3)cc2)c[nH]1)C(C)C [daclatasvir]	–	–	–	–	–	EC50 (SARS-CoV-2 [7]): 1.1 ± 0.3 µM
CC(C)C(=O)OC[C@H]1O[C@@H](n2ccc(NO)nc2=O)[C@H](O)[C@@H]1O [molnupiravir]	–	–	–	–	–	EC50 (SARS-CoV-2 [8]): 1.97 µM
